This passage reports EC50 results from patent US7714019B2 (priority 2002, dated 2010).

As usually defined, the EC50 is the concentration needed to bring the measured effect to its halfway point.

The subject of the assay is HIV-1 single-round infectious reporter virus. Put plainly: microbe, parasite or virus in culture. Format: cell-based. The following applies: Human immunodeficiency virus 1, HeLa-CD4/CCR5, 72 h, read-out: EC50 Group from Table 1. As to the method:
• Virus production-Human embryonic Kidney cell line, 293, propagated in Dulbecco's Modified Eagle Medium (Life Technologies, Gaithersburg, Md.) containing 10% fetal Bovine serum (FBS, Sigma, St. Louis, Mo.). • Virus infection-Human epithelial cell line, HeLa, expressing the HIV-1 receptors CD4 and CCR5 was propagated in Dulbecco's Modified Eagle Medium (Life Technologies, Gaithersburg, Md.) containing 10% fetal Bovine serum (FBS, Sigma, St. Louis, Mo.) and supplemented with 0.2 mg/mL Geneticin (Life Technologies, Gaithersburg, Md.) and 0.4 mg/mL Zeocin (Invitrogen, Carlsbad, Calif.). Virus—Single-round infectious reporter virus was produced by co-transfecting human embryonic Kidney 293 cells with an HIV-1 envelope DNA expression vector and a proviral cDNA containing an envelope deletion mutation and the luciferase reporter gene inserted in place of HIV-1 nef sequences (Chen et al, Ref. 41). Transfections were performed using lipofectAMINE PLUS reagent as described by the manufacturer (Life Technologies, Gaithersburg, Md.). Experiment • 1. Compound was added to HeLa CD4 CCR5 cells plated in 96 well plates at a cell density of 1×10^3 cells per well in 100 μl Dulbecco's Modified Eagle Medium containing 10% fetal Bovine serum at a concentration of <20 μM. • 2. 100 μl of single-round infectious reporter virus in Dulbecco's Modified Eagle Medium was then added to the plated cells and compound at an approximate multiplicity of infection (MOI) of 0.01, resulting in a final volume of 200 μl per well and a final compound concentration of <10 μM. • 3. Samples were harvested 72 h after infection. • 4. Viral infection was monitored by measuring luciferase expression from viral DNA in the infected cells using a luciferase reporter gene assay kit (Roche Molecular Biochemicals, Indianapolis, Ind.). Infected cell supernatants were removed and 50 μl of Dulbecco's Modified Eagle Medium (without phenol red) and 50 μl of luciferase assay reagent reconstituted as described by the manufacturer (Roche Molecular Biochemicals, Indianapolis, Ind.) was added per well. Luciferase activity was then quantified by measuring luminescence using a Wallac microbeta scintillation counter. • 5. […] An EC50 provides a method for comparing the antiviral potency of the compounds of this invention. The effective concentration for fifty percent inhibition (EC50) was calculated with the Microsoft Excel Xlfit curve fitting software. For each compound, curves were generated from percent inhibition calculated at 10 different concentrations by using a four parameter logistic model (model 205). Table 1 is the key for the data in Table 2. Results

As to `O=C(NCC1CCN(C(=O)c2ccccc2)C1)C(=O)c1c[nH]c2cccc(F)c12` (centres unmarked) [Example 1, N-(1-Benzoyl-pyrrolidin-3-ylmethyl)-2-(4-fluoro-1H-indol-3-yl)-2-oxo-acetamide], the EC50 is below 1 µM. With `CC(C)(C)OC(=O)NCC1CCN(C(=O)C(=O)c2c[nH]c3cccc(F)c23)C1` (centres unmarked) [Example 2, {1-[2-(4-Fluoro-1H-indol-3-yl)-2-oxo-acetyl]-pyrrolidin-3-ylmethyl}-carbamic acid tert-butyl ester], the EC50 is above 5 µM. For the compound `O=C(NCC1CCN(C(=O)C(=O)c2c[nH]c3cccc(F)c23)C1)c1ccccc1` (centres unmarked) [Example 3, N-{1-[2-(4-Fluoro-1H-indol-3-yl)-2-oxo-acetyl]-pyrrolidin-3-ylmethyl}-benzamide], the EC50 is below 1 µM. Turning to `O=C(NCC1CCN(C(=O)C(=O)c2cn(C(=O)c3ccccc3)c3cccc(F)c23)C1)c1ccccc1` (centres unmarked) [Example 4, N-{1-[2-(1-Benzoyl-4-fluoro-1H-indol-3-yl)-2-oxo-acetyl]-pyrrolidin-3-ylmethyl}-benzamide], the EC50 is below 1 µM. Next, `O=Cc1ccc(F)c2c(C(=O)C(=O)NCC3CCN(C(=O)c4ccccc4)C3)c[nH]c12` (centres unmarked) [Example 5, N-(1-Benzoyl-pyrrolidin-3-ylmethyl)-2-(4-fluoro-7-formyl-1H-indol-3-yl)-2-oxo-acetamide]: 1 to 5 µM; `O=C(NCC1CCN(C(=O)c2ccccc2)C1)C(=O)c1c[nH]c2ncccc12` (centres unmarked) [Example 6, N-(1-Benzoyl-pyrrolidin-3-ylmethyl)-2-oxo-2-(1H-pyrrolo[2,3-b]pyridin-3-yl)-acetamide]: above 5 µM; `O=C(NCC1CCN(C(=O)c2ccccc2)C1)C(=O)c1c[nH]c2c(C(=O)O)ccc(F)c12` (centres unmarked) [Example 7]: 1 to 5 µM. Take `CNC(=O)c1ccc(F)c2c(C(=O)C(=O)NCC3CCN(C(=O)c4ccccc4)C3)c[nH]c12` (centres unmarked) [Example 8]: the EC50 was below 1 µM. For `O=C(NC[C@@H]1CCN(C(=O)C(=O)c2c[nH]c3c(Br)ccc(F)c23)C1)c1ccccc1` [Example 9, N-{1-[2-(7-Bromo-4-fluoro-1H-indol-3-yl)-2-oxo-acetyl]-pyrrolidin-3-ylmethyl}-benzamide], the EC50 is below 1 µM. Consider `O=C(NC[C@H]1CCN(C(=O)C(=O)c2c[nH]c3c(Br)ccc(F)c23)C1)c1ccccc1` [Example 10, N-{1-[2-(7-Bromo-4-fluoro-1H-indol-3-yl)-2-oxo-acetyl]-pyrrolidin-3-ylmethyl}-benzamide], for which the EC50 is below 1 µM.

Take `O=C(NC[C@H]1CCN(C(=O)C(=O)c2c[nH]c3c(-c4cc[nH]n4)ccc(F)c23)C1)c1ccccc1` [Example 11, N-(1-{2-[4-Fluoro-7-(1H-pyrazol-3-yl)-1H-indol-3-yl]-2-oxo-acetyl}-pyrrolidin-3-ylmethyl)-benzamide]: the EC50 was below 1 µM. For `O=C(NC[C@@H]1CCN(C(=O)C(=O)c2c[nH]c3c(-c4cc[nH]n4)ccc(F)c23)C1)c1ccccc1` [Example 12, N-(1-{2-[4-Fluoro-7-(1H-pyrazol-3-yl)-1H-indol-3-yl]-2-oxo-acetyl}-pyrrolidin-3-ylmethyl)-benzamide], the EC50 is below 1 µM. `O=C(NCC1CCCN1C(=O)C(=O)c1c[nH]c2ccccc12)c1ccccc1` (centres unmarked) [Example 13]: the EC50 was below 1 µM. Take `CN(C(=O)c1c[nH]c2ccccc12)C1CCN(C(=O)c2ccccc2)C1` (centres unmarked) [Example 14, 1H-Indole-3-carboxylic acid (1-benzoyl-pyrrolidin-3-yl)-methyl-amide]: the EC50 is above 5 µM.
